Where two headings read alike, the source gives them in different places.
Molecular target: T1, KRas G12V (Homo sapiens, UniProt P01116, G12V)
T1 construct: Biotinylated KRas G12V (aa 1-169) loaded with GDP nucleotide; biotin (biotinylated)
Experiment: SOS1-Catalyzed Nucleotide Exchange Assay, KRas G12V (Method 2)
Type: biochemical
Conditions: 5 nM KRas G12V (aa 1-169, GDP-loaded), 50 nM SOS1
Method: KRas G12V [Method 2]: Compounds were pre-dispensed via Echo liquid handling (acoustic, touch-free) to generate assay ready plates (ARP). More precisely, a 10-point concentration response curve for each compound was prepared with appropriate top concentration (1 μM, 10 μM, 100 μM). Biotinylated KRas G12V (aa 1-169) loaded with GDP nucleotide and Streptavidin-Europium (SA-EU, Columbia Biosciences) were preincubated in assay buffer (20 mM HEPES pH 7.4, 150 mM NaCl, 5 mM MgCl2, 1 mM DTT, 0.01% Brij-35, 0.3 mg/mL BSA) on ice for 30 min. Separately SOS1 (aa 546-1049) and EDA-GTP-DY647P1 (Jena Bioscience) were preincubated in assay buffer on ice for 30 min. After 30 minutes of incubation for the assay components, 5 μL buffer and 5 μL of KRas G12V-SA-Eu were added to each well of the ARP. After a further 30 min, 5 μL of SOS1-EDA-GTP-D467P1 was added to start the nucleotide exchange reaction. Final concentration in the assay were 5 nM KRas G12V, 50 nM SOS1 (aa 564-1049). The reaction was allowed to proceed for 60-90 minutes after which the plate was read on a plate reader. After normalization of the raw data, the data was fit to a four-parameter logistic curve.

[1] = Method 2, A, read-out: KRas G12V IC50 (nM) (Method 2, A)
[2] = Method 2, B, read-out: KRas G12V IC50 (nM) (Method 2, B)

T1 sequence (P01116 1-169 G12V): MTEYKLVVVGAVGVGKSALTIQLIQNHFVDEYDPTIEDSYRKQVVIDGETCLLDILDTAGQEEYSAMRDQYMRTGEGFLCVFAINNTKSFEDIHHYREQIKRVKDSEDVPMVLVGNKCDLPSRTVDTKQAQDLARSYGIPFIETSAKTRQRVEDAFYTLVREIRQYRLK

In the case of `O=C1CCCCc2c(Cl)cc(O)cc2-c2ncc3c(nc(OC[C@@]45CCCN4C[C@H](F)C5)nc3c2F)N2CCCC(O)(CCN1)C2` (single isomer, unassigned) [Compound 140b], the IC50 [1] is reported as ≤ 100 nM and the IC50 [2] is reported as ≤ 100 nM.

With `O=C1CCCCc2c(Cl)cc(O)cc2-c2ncc3c(nc(OC[C@@]45CCCN4C[C@H](F)C5)nc3c2F)N2CCCC(O)(CCN1)C2` (single isomer, unassigned) [Compound 140c] the IC50 [2] was ≤ 100 nM.

An IC50 [2] of 1000 to 10000 nM was found for `Nc1cc2c(cc1F)CCCCC(=O)NCCC1CCCN(C1)c1nc(OC[C@@]34CCCN3C[C@H](F)C4)nc3c(F)c-2ncc13` (single isomer, unassigned) [Compound 159b] in this work.

An IC50 [2] of 10000 to 30000 nM was found for `Nc1cc2c(cc1F)CCCCC(=O)NCCC1CCCN(C1)c1nc(OC[C@@]34CCCN3C[C@H](F)C4)nc3c(F)c-2ncc13` (single isomer, unassigned) [Compound 159c] in this work.

An IC50 [2] of 10000 to 30000 nM was found for `Nc1cc2c(c(Cl)n1)CCCCC(=O)NCCC1(O)CCCN(C1)c1nc(OC[C@@]34CCCN3C[C@H](F)C4)nc3c(F)c-2c(F)cc13` (single isomer, unassigned) [Compound 188a] in this work.

In the case of `CN(C)CC1(COc2nc3c4ccc(c(F)c4n2)-c2c(c(Cl)cc4[nH]ncc24)CCCCC(=O)NCCC2CCCN3C2)CC1` (single isomer, unassigned) [Compound 197a, 1^6-chloro-2^2-((1-((dimethylamino)methyl)cyclopropyl)methoxy)-2^8-fluoro-1^1H-6-aza-2(7,4)-quinazolina-1(4,5)-indazola-3(1,3)-piperidinacycloundecaphan-7-one], the IC50 [2] is reported as ≤ 100 nM.

With `CN(C)CC1(COc2nc3c4ccc(c(F)c4n2)-c2c(c(Cl)cc4[nH]ncc24)CCCCC(=O)NCCC2CCCN3C2)CC1` (single isomer, unassigned) [Compound 197b, 1^6-chloro-2^2-((1-((dimethylamino)methyl)cyclopropyl)methoxy)-2^8-fluoro-1^1H-6-aza-2(7,4)-quinazolina-1(4,5)-indazola-3(1,3)-piperidinacycloundecaphan-7-one] the IC50 [2] was ≤ 100 nM.

`O=C1CCCCc2c(Cl)cc3[nH]ncc3c2-c2ccc3c(nc(OC[C@@]45CCCN4C[C@H](F)C5)nc3c2F)N2CCCC(CCN1)C2` (single isomer, unassigned) [Compound 202a] was tested, and the IC50 [2] was ≤ 100 nM.

In the case of `O=C1CCCCc2c(Cl)cc3[nH]ncc3c2-c2ccc3c(nc(OC[C@@]45CCCN4C[C@H](F)C5)nc3c2F)N2CCCC(CCN1)C2` (single isomer, unassigned) [Compound 202b], the IC50 [2] is reported as ≤ 100 nM.

For `O=C1CCCc2c(F)ccc3cc(O)cc(c23)-c2ncc3c(nc(OC[C@@]45CCCN4C[C@H](F)C5)nc3c2F)N2CCCC(CCN1)C2` (stereo partly drawn) [Compound 118a, 2^8,3^7-difluoro-2^2-(((2R,7aS)-2-fluorotetrahydro-1H-pyrrolizin-7a(5H)-yl)methoxy)-3^3-hydroxy-8-aza-2(4,7)-pyrido[4,3-d]pyrimidina-1(1,3)-piperidina-3(1,8)-naphthalenacyclodecaphan-7-one], the IC50 [2] was ≤ 100 nM.

`O=C1CCCc2c(F)ccc3cc(O)cc(c23)-c2ncc3c(nc(OC[C@@]45CCCN4C[C@H](F)C5)nc3c2F)N2CCCC(CN1)C2` (stereo partly drawn) [Compound 135a, 2^8,3^7-difluoro-2^2-(((2R,7aS)-2-fluorotetrahydro-1H-pyrrolizin-7a(5H)-yl)methoxy)-3^3-hydroxy-8-aza-2(4,7)-pyrido[4,3-d]pyrimidina-1(1,3)-piperidina-3(1,8)-naphthalenacyclononaphan-7-one] was tested, and the IC50 [1] was ≤ 100 nM.

For `O=C1CCCc2c(F)ccc3cc(O)cc(c23)-c2ncc3c(nc(OC[C@@]45CCCN4C[C@H](F)C5)nc3c2F)N2CCCC(O)(CCN1)C2` (stereo partly drawn) [Compound 136a, 2^8,3^7-difluoro-2^2-(((2R,7aS)-2-fluorotetrahydro-1H-pyrrolizin-7a(5H)-yl)methoxy)-1^3,3^3-dihydroxy-8-aza-2(4,7)-pyrido[4,3-d]pyrimidina-1(1,3)-piperidina-3(1,8)-naphthalenacyclodecaphan-7-one], the IC50 [2] was ≤ 100 nM.

With `Nc1cc(Cl)c2c(c1)-c1ncc3c(nc(OC[C@@]45CCCN4C[C@H](F)C5)nc3c1F)N1CCCC(CCNC(=O)CCCC2)C1` (stereo partly drawn) [Compound 154a, 3^5-amino-3^3-chloro-2^8-fluoro-2^2-(((2R,7aS)-2-fluorotetrahydro-1H-pyrrolizin-7a(5H)-yl)methoxy)-9-aza-2(4,7)-pyrido[4,3-d]pyrimidina-1(1,3)-piperidina-3(1,2)-benzenacycloundecaphan-8-one] the IC50 [1] was ≤ 100 nM.

An IC50 [1] of 1000 to 10000 nM was found for `Nc1cc(Cl)c2c(c1)-c1c(Cl)cc3c(nc(OC[C@@]45CCCN4C[C@H](F)C5)nc3c1F)N1CCCC(CCNC(=O)CCCC2)C1` (stereo partly drawn) [Compound 155a, 3^5-amino-2^6,3^3-dichloro-2^8-fluoro-2^2-(((2R,7aS)-2-fluorotetrahydro-1H-pyrrolizin-7a(5H)-yl)methoxy)-9-aza-2(4,7)-quinazolina-1(1,3)-piperidina-3(1,2)-benzenacycloundecaphan-8-one] in this work.

In the case of `Nc1cc(Cl)c2c(c1)-c1ncc3c(nc(OC[C@@]45CCCN4C[C@H](F)C5)nc3c1F)N1CCCC(O)(CCNC(=O)CCCC2)C1` (stereo partly drawn) [Compound 156a, 3^5-amino-3^3-chloro-2^8-fluoro-2^2-(((2R,7aS)-2-fluorotetrahydro-1H-pyrrolizin-7a(5H)-yl)methoxy)-13-hydroxy-9-aza-2(4,7)-pyrido[4,3-d]pyrimidina-1(1,3)-piperidina-3(1,2)-benzenacycloundecaphan-8-one], the IC50 [1] is reported as ≤ 100 nM.

An IC50 [1] of 1000 to 10000 nM was found for `Nc1ccc2c(c1)-c1ncc3c(nc(OC[C@@]45CCCN4C[C@H](F)C5)nc3c1F)N1CCCC(O)(CCNC(=O)CCCC2)C1` (stereo partly drawn) [Compound 157a, 3^5-amino-2^8-fluoro-2^2-(((2R,7aS)-2-fluorotetrahydro-1H-pyrrolizin-7a(5H)-yl)methoxy)-1^3-hydroxy-9-aza-2(4,7)-pyrido[4,3-d]pyrimidina-1(1,3)-piperidina-3(1,2)-benzenacycloundecaphan-8-one] in this work.

An IC50 [1] of 1000 to 10000 nM was found for `Nc1cc(Cl)c2c(c1)-c1c(Cl)cc3c(nc(OC[C@@]45CCCN4C[C@H](F)C5)nc3c1F)N1CCCC(O)(CCNC(=O)CCCC2)C1` (stereo partly drawn) [Compound 158a, 3^5-amino-2^6,3^3-dichloro-2^8-fluoro-2^2-(((2R,7aS)-2-fluorotetrahydro-1H-pyrrolizin-7a(5H)-yl)methoxy)-1^3-hydroxy-9-aza-2(4,7)-quinazolina-1(1,3)-piperidina-3(1,2)-benzenacycloundecaphan-8-one] in this work.

An IC50 [1] of 1000 to 10000 nM was found for `Nc1cc2c(cc1F)CCCCC(=O)NCCC1CCCN(C1)c1nc(OC[C@@]34CCCN3C[C@H](F)C4)nc3c(F)c-2ncc13` (stereo partly drawn) [Compound 159a, 3^5-amino-2^8,3^4-difluoro-2^2-(((2R,7aS)-2-fluorotetrahydro-1H-pyrrolizin-7a(5H)-yl)methoxy)-9-aza-2(4,7)-pyrido[4,3-d]pyrimidina-1(1,3)-piperidina-3(1,2)-benzenacycloundecaphan-8-one] in this work.

An IC50 [1] of 10000 to 30000 nM was found for `Nc1ccc2c(c1F)-c1ncc3c(nc(OC[C@@]45CCCN4C[C@H](F)C5)nc3c1F)N1CCCC(CCNC(=O)CCCC2)C1` (stereo partly drawn) [Compound 160a, 3^5-amino-2^8,3^6-difluoro-2^2-(((2R,7aS)-2-fluorotetrahydro-1H-pyrrolizin-7a(5H)-yl)methoxy)-9-aza-2(4,7)-pyrido[4,3-d]pyrimidina-1(1,3)-piperidina-3(1,2)-benzenacycloundecaphan-8-one] in this work.

An IC50 [1] of 1000 to 10000 nM was found for `Nc1cc2c(cc1F)CCCCC(=O)NCCC1(O)CCCN(C1)c1nc(OC[C@@]34CCCN3C[C@H](F)C4)nc3c(F)c-2ncc13` (stereo partly drawn) [Compound 161a, 3^5-amino-2^8,3^4-difluoro-2^2-(((2R,7aS)-2-fluorotetrahydro-1H-pyrrolizin-7a(5H)-yl)methoxy)-1^3-hydroxy-9-aza-2(4,7)-pyrido[4,3-d]pyrimidina-1(1,3)-piperidina-3(1,2)-benzenacycloundecaphan-8-one] in this work.

An IC50 [2] of 100 to 1000 nM was found for `Nc1cc(Cl)c2c(c1)-c1ncc3c(nc(OC[C@@]45CCCN4C[C@H](F)C5)nc3c1F)N1CCOCC(CNC(=O)CCCC2)C1` (stereo partly drawn) [Compound 162a, 3^5-amino-3^3-chloro-2^8-fluoro-2^2-(((2R,7aS)-2-fluorotetrahydro-1H-pyrrolizin-7a(5H)-yl)methoxy)-9-aza-1(4,6)-oxazepana-2(4,7)-pyrido[4,3-d]pyrimidina-3(1,2)-benzenacyclodecaphan-8-one] in this work.

An IC50 [2] of 1000 to 10000 nM was found for `Nc1cc2c(cc1F)CCCCC(=O)NCCC1CCCN(C1)c1nc(OC[C@@]34CCCN3C[C@H](F)C4)nc3c(F)c-2ccc13` (stereo partly drawn) [Compound 163a, 3^5-amino-2^8,3^4-difluoro-2^2-(((2R,7aS)-2-fluorotetrahydro-1H-pyrrolizin-7a(5H)-yl)methoxy)-9-aza-2(4,7)-quinazolina-1(1,3)-piperidina-3(1,2)-benzenacycloundecaphan-8-one] in this work.

An IC50 [2] of 1000 to 10000 nM was found for `Nc1cc(Cl)c2c(c1)-c1ncc3c(nc(OC[C@@]45CCCN4C[C@H](F)C5)nc3c1F)N1CCC(CCNC(=O)CCCC2)C1` (stereo partly drawn) [Compound 164a, 3^5-amino-3^3-chloro-2^8-fluoro-2^2-(((2R,7aS)-2-fluorotetrahydro-1H-pyrrolizin-7a(5H)-yl)methoxy)-9-aza-2(4,7)-pyrido[4,3-d]pyrimidina-1(1,3)-pyrrolidina-3(1,2)-benzenacycloundecaphan-8-one] in this work.

From patent publication US20260364089A1, “PYRIDOPYRIMIDINE KRAS INHIBITORS” (Treeline Biosciences, Inc., priority 2022, published 2026)
